The results in this text go back to ChEMBL document CHEMBL1201862, “PubChem BioAssay data set” (2004).

Test systems include BT-549; COLO 205; DU-145; EKVX; HT-29; KM12; MCF7; MDA-N; NCI-H226; OVCAR-3; RXF 393; SF-268; SF-295; SF-539; SK-MEL-5; SK-OV-3; SR; SW-620; U-251; SK-MEL-2.
Test in all cases: NCI anticancer screen, dose series, 48 h

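How tested: cells in 96-well plates exposed to compound for 48 hours at five concentrations. The concentration for 50% growth inhibition is given as GI50.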 Activity calls are given as the source filed them. No stated cut-off is given here; in the data, active = GI50 up to about 1.1 µM and inactive = higher.

Take `Cc1cccc(C2NC(=O)c3ccccc3N2)c1` (stereo not drawn): the GI50 was 5.68 µM (inactive) in the experiment with BT-549; 4.19 µM (inactive) in the experiment with COLO 205; 7.96 µM (inactive) with DU-145; 7.76 µM (inactive) in the experiment with EKVX; 2.75 µM (inactive) in the experiment on HT-29; 3.21 µM (inactive) with KM12. Also, the GI50 with MCF7 is 3.15 µM (inactive); with MDA-N it was 0.543 µM (active); in the experiment on NCI-H226, 5.35 µM (inactive); with OVCAR-3, 3.22 µM (inactive); with RXF 393, 4.44 µM (inactive); in the experiment with SF-268 it was 11.3 µM (inactive). Besides, the GI50 in the experiment with SF-295 is 2.88 µM (inactive); with SF-539, 2.33 µM (inactive); in the experiment on SK-MEL-5, 3.38 µM (inactive); with SK-OV-3 it was 4.4 µM (inactive); in the experiment with SR it was 0.791 µM (active); in the experiment on SW-620, 5.62 µM (inactive). Besides, the GI50 in the experiment on U-251 was 4.95 µM (inactive).
For `C=C(NC(=O)C(=C)NC(=O)c1csc(C2=NC3c4csc(n4)C4NC(=O)c5csc(n5)C(C(C)(O)C(C)O)NC(=O)C5CSC(=N5)/C(=C/C)NC(=O)C(C(C)O)NC(=O)c5csc(n5)C3(CC2)NC(=O)C(C)NC(=O)C(=C)NC(=O)C(=C)NC(=O)C(C(C)C)NC2C=Cc3c(C(C)O)cc(nc3C2O)C(=O)OC4C)n1)C(N)=O` (stereo not drawn), the GI50 is 2.37 µM (inactive) in the experiment with BT-549; 0.468 µM (active) in the experiment on COLO 205; 20.9 µM (inactive) in the experiment on DU-145; 3.92 µM (inactive) with EKVX; 1.32 µM (inactive) in the experiment on HT-29; 2.66 µM (inactive) in the experiment with KM12. Also, the GI50 with MCF7 is 1.33 µM (inactive); in the experiment on MDA-N, 1.56 µM (inactive); in the experiment on NCI-H226, 1.19 µM (inactive); with OVCAR-3 it was 10.3 µM (inactive); in the experiment with RXF 393 it was 0.708 µM (active); in the experiment with SF-268, 7.19 µM (inactive). Moreover, the GI50 in the experiment on SF-295 is 26 µM (inactive); with SF-539, 0.34 µM (active); in the experiment with SK-MEL-2 it was 2.22 µM (inactive); with SK-MEL-5 it was 1.29 µM (inactive); in the experiment on SK-OV-3, 19.6 µM (inactive); with SW-620, 0.673 µM (active). Further, in the experiment on U-251, the GI50 is 0.877 µM (active).
Consider `CN1CN(c2ccccc2)C2(CCN(CCCCCCF)CC2)C1=O`, for which the GI50 was 3.41 µM (inactive) in the experiment with BT-549; 21.1 µM (inactive) in the experiment on COLO 205; 44.1 µM (inactive) with DU-145; 48.6 µM (inactive) in the experiment with EKVX; 30.9 µM (inactive) in the experiment with HT-29; > 100 µM (inactive) in the experiment with KM12. The GI50 in the experiment with MCF7 is 23.8 µM (inactive); with MDA-N, 63.8 µM (inactive); in the experiment with NCI-H226, > 100 µM (inactive); with OVCAR-3 it was > 100 µM (inactive); in the experiment with RXF 393, > 100 µM (inactive); in the experiment with SF-268 it was 94.8 µM (inactive). Further, the GI50 was 82 µM (inactive) with SF-295; 28.8 µM (inactive) in the experiment on SF-539; 38.1 µM (inactive) with SK-MEL-5; > 100 µM (inactive) in the experiment with SK-OV-3; > 100 µM (inactive) in the experiment on SR; 53.8 µM (inactive) in the experiment with SW-620. The GI50 in the experiment on U-251 was 97.1 µM (inactive).
Turning to `CCC1(O)CC(CCN(Cc2ccccc2)C(=O)OCc2ccccc2)C(OCc2ccccc2)C1O` (stereo not drawn), the GI50 is 13 µM (inactive) in the experiment on BT-549; 16.2 µM (inactive) with COLO 205; 18.5 µM (inactive) with DU-145; 15.7 µM (inactive) in the experiment on EKVX; 15.3 µM (inactive) in the experiment with HT-29; 12.7 µM (inactive) in the experiment on KM12. Further, the GI50 is 6.38 µM (inactive) with MCF7; 26.8 µM (inactive) in the experiment with MDA-N; 10.7 µM (inactive) with NCI-H226; 13 µM (inactive) in the experiment with OVCAR-3; 16.3 µM (inactive) in the experiment with RXF 393; 11.1 µM (inactive) with SF-295. Also, the GI50 was 14.4 µM (inactive) in the experiment with SK-MEL-2; 15.1 µM (inactive) in the experiment on SK-MEL-5; 17.4 µM (inactive) in the experiment on SK-OV-3; 12.2 µM (inactive) in the experiment on SR; 36.1 µM (inactive) in the experiment on SW-620; 27.9 µM (inactive) in the experiment on U-251.
Consider `CCCCCCCCCCCCCCCCCCNc1ccn(C2OC(COP(=O)(O)OCC3OC(n4cc(C)c(=O)[nH]c4=O)CC3O)C(O)C2O)c(=O)n1` (stereo not drawn), for which the GI50 is 14.7 µM (inactive) in the experiment with BT-549; 14.9 µM (inactive) with COLO 205; 17.8 µM (inactive) in the experiment with DU-145; 19.4 µM (inactive) with EKVX; 16.7 µM (inactive) in the experiment on HT-29; 18.3 µM (inactive) in the experiment with KM12. For the same compound, the GI50 in the experiment on MCF7 was 34.6 µM (inactive); with MDA-N, 18.4 µM (inactive); with NCI-H226, 23.7 µM (inactive); in the experiment on OVCAR-3, 19 µM (inactive); in the experiment with RXF 393, 12 µM (inactive); with SF-268, 17.4 µM (inactive). The GI50 in the experiment on SF-295 was 18.7 µM (inactive); with SF-539 it was 17.3 µM (inactive); in the experiment on SK-MEL-5 it was 14.9 µM (inactive); in the experiment on SK-OV-3, 17.1 µM (inactive); in the experiment with SR, 11.9 µM (inactive); in the experiment on SW-620, 15.2 µM (inactive). In the experiment on U-251, the GI50 is 18.9 µM (inactive).
On to `Nc1cc(Cl)cc2cc(Cl)cnc12`, for which the GI50 in the experiment on BT-549 is > 100 µM (inactive); with COLO 205 it was > 100 µM (inactive); in the experiment with DU-145, > 100 µM (inactive); with EKVX it was 39.9 µM (inactive); in the experiment with HT-29, > 100 µM (inactive); with KM12, > 100 µM (inactive). For the same compound, the GI50 is > 100 µM (inactive) in the experiment on MCF7; > 100 µM (inactive) in the experiment with MDA-N; > 100 µM (inactive) in the experiment with NCI-H226; > 100 µM (inactive) in the experiment with OVCAR-3; > 100 µM (inactive) in the experiment on RXF 393; 82.6 µM (inactive) with SF-268. Moreover, the GI50 in the experiment on SF-295 is > 100 µM (inactive); in the experiment with SF-539 it was > 100 µM (inactive); with SK-MEL-5 it was > 100 µM (inactive); in the experiment with SK-OV-3, > 100 µM (inactive); in the experiment with SR, 38 µM (inactive); with SW-620 it was > 100 µM (inactive). Besides, the GI50 with U-251 is > 100 µM (inactive).
With `NC(=O)N/N=C1\CC2C3CC4C2C4C13` (stereo not drawn), the GI50 with BT-549, with COLO 205, with DU-145, in the experiment with EKVX, in the experiment on HT-29 and with KM12 was > 100 µM (inactive) each time. For the same compound, the GI50 in the experiment on MCF7, with MDA-N, with NCI-H226, with OVCAR-3, in the experiment with SF-268 and in the experiment with SF-295 was > 100 µM (inactive) in each case. For the same compound, the GI50 in the experiment with SF-539, in the experiment on SK-MEL-2, in the experiment with SK-MEL-5, in the experiment on SK-OV-3, with SR and with SW-620 was > 100 µM (inactive) throughout. Moreover, the GI50 in the experiment on U-251 was > 100 µM (inactive).
Regarding `Cc1ccc2c(c1C)CC1(Cc3c(ccc4c3CCC4)C1=O)C2=O` (stereo not drawn), the GI50 in the experiment with BT-549, in the experiment with COLO 205, in the experiment with DU-145, with EKVX, in the experiment with HT-29 and in the experiment with KM12 was > 100 µM (inactive) each time. Besides, the GI50 was 21.9 µM (inactive) in the experiment on MCF7; > 100 µM (inactive) in the experiment on MDA-N; > 100 µM (inactive) with NCI-H226; 65.9 µM (inactive) in the experiment on OVCAR-3; > 100 µM (inactive) in the experiment on RXF 393; > 100 µM (inactive) in the experiment on SF-268. The GI50 in the experiment on SF-295 was > 100 µM (inactive); in the experiment on SF-539 it was 0.652 µM (active); in the experiment with SK-MEL-2, > 100 µM (inactive); with SK-MEL-5, > 100 µM (inactive); with SK-OV-3, > 100 µM (inactive); in the experiment on SW-620, > 100 µM (inactive). In addition, the GI50 in the experiment on U-251 was > 100 µM (inactive).
For `O=C1/C(=C/c2cccc([N+](=O)[O-])c2)CCCc2ccccc21`, the GI50 with BT-549 is 12.5 µM (inactive); in the experiment on COLO 205, 18.8 µM (inactive); in the experiment with DU-145, 15 µM (inactive); in the experiment on EKVX it was 16 µM (inactive); in the experiment on HT-29 it was 9.84 µM (inactive); in the experiment on KM12, 2.42 µM (inactive). The GI50 with MCF7 was 3.92 µM (inactive); with MDA-N it was 9.33 µM (inactive); in the experiment with NCI-H226, 16.2 µM (inactive); in the experiment on OVCAR-3 it was 13.6 µM (inactive); with SF-268, 4.82 µM (inactive); with SF-295 it was 14.6 µM (inactive). For the same compound, the GI50 was 15.3 µM (inactive) with SF-539; 11 µM (inactive) in the experiment on SK-MEL-2; 29.4 µM (inactive) in the experiment with SK-OV-3; 2.86 µM (inactive) with SR; 4.76 µM (inactive) in the experiment on SW-620; 8.71 µM (inactive) with U-251.
For the compound `O=S(=O)(N/C(=N\O)Nc1ccc(Cl)cc1)c1cc(S(=O)(=O)c2ccccc2)cs1`, the GI50 in the experiment on BT-549 is 15.5 µM (inactive); in the experiment with COLO 205, 18.7 µM (inactive); in the experiment on DU-145, 18 µM (inactive); in the experiment with EKVX it was 16.3 µM (inactive); with HT-29, 21 µM (inactive); in the experiment on KM12 it was 22.2 µM (inactive). The GI50 in the experiment on MCF7 was 17.3 µM (inactive); in the experiment on MDA-N it was 15.8 µM (inactive); in the experiment with NCI-H226 it was 28.6 µM (inactive); with OVCAR-3, 13.5 µM (inactive); with RXF 393, 16.3 µM (inactive); with SF-268, 11.5 µM (inactive). The GI50 in the experiment on SF-295 is 15.8 µM (inactive); in the experiment with SF-539, 14.3 µM (inactive); in the experiment with SK-MEL-2, 18.7 µM (inactive); in the experiment with SK-MEL-5, 9.08 µM (inactive); in the experiment with SR, 6.21 µM (inactive); in the experiment with SW-620, 19.8 µM (inactive). Also, the GI50 in the experiment with U-251 was 13.7 µM (inactive).
